Here are results for 5 molecules from ChEMBL document CHEMBL5465560, “Selectivity Literature for EUbOPEN Chemogenomic Library” (2024).

Assay [1] concerns the target T1, Serine/threonine-protein kinase PLK4 (Homo sapiens) (UniProt O00444).
T1 sequence (whole entry): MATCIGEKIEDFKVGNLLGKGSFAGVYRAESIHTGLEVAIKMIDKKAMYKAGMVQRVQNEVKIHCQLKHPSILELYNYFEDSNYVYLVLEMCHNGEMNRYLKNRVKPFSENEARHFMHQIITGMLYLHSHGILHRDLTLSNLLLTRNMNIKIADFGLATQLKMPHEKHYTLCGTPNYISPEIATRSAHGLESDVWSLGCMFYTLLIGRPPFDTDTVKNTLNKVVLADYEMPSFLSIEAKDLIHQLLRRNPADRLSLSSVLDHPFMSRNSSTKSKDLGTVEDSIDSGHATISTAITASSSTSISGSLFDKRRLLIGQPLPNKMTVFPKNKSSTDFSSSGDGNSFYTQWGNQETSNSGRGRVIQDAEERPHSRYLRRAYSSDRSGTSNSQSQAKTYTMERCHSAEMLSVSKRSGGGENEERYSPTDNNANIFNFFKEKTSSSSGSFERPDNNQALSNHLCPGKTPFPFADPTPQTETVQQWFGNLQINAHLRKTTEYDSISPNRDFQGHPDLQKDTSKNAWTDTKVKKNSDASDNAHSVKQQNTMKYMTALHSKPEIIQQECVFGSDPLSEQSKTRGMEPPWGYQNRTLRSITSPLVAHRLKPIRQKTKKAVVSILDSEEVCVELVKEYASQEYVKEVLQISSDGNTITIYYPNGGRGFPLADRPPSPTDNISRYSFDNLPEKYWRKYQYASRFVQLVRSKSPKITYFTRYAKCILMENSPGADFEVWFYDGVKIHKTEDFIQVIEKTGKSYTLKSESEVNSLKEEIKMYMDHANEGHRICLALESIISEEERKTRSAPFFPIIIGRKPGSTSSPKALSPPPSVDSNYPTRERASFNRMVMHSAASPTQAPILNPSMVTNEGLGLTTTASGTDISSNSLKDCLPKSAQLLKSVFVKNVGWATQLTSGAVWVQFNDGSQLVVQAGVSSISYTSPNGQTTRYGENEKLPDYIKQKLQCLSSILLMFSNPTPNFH
Briefly: Selectivity interaction (KinomeScan (DiscoverX)) EUB0000666a PLK4. To be noted: at 10 µM.

Assay [2] has as its target Receptor-interacting serine/threonine-protein kinase 2 (Homo sapiens, UniProt O43353). Briefly: Selectivity interaction (Kinase panel (Invitrogen)) EUB0000639a RIPK2. To be noted: at 200 nM.
Assay [3] has as its target T2, Calcium/calmodulin-dependent protein kinase type IV (Homo sapiens) (UniProt Q16566).
T2 sequence (whole entry): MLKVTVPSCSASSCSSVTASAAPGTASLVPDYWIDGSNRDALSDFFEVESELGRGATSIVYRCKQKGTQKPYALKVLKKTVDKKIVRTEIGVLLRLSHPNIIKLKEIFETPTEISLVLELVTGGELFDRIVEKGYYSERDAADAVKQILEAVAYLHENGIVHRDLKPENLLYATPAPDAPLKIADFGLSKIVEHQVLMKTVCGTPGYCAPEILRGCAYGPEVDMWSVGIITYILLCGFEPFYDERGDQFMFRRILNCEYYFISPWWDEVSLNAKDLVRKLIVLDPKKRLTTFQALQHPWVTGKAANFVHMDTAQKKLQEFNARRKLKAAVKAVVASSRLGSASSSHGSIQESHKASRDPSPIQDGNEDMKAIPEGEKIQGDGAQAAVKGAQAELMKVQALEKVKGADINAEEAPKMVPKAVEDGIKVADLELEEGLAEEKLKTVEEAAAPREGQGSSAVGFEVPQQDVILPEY
Nature of the assay: Selectivity interaction (KinomeScan (DiscoverX)) EUB0001049a CAMK4. To be noted: at 1 µM.

Assay [4] addresses T3, NUAK family SNF1-like kinase 2 (Homo sapiens) (UniProt Q9H093).
T3 sequence (whole entry): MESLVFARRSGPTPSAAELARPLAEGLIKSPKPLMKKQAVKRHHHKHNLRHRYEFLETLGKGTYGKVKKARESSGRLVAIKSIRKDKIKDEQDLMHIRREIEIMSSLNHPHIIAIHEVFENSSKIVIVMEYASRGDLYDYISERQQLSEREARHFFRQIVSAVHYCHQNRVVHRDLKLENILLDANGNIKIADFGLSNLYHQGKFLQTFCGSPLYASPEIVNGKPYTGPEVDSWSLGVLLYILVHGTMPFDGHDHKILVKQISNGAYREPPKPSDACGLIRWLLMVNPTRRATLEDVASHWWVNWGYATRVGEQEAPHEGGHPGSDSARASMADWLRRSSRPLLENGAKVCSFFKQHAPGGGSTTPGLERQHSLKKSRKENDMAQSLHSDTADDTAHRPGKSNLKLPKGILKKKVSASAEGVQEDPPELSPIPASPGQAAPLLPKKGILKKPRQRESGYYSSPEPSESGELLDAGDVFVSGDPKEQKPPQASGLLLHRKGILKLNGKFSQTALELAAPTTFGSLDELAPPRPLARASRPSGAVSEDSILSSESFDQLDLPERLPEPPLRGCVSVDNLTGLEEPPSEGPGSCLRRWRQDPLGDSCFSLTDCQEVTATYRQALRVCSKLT
Briefly: Selectivity interaction (KinomeScan (DiscoverX)) EUB0000655a NUAK2. The conditions noted are these: at 10 µM.

Assay [5] addresses High affinity nerve growth factor receptor (Homo sapiens, UniProt P04629). Nature of the assay: Selectivity interaction (KinomeScan (DiscoverX)) EUB0000229b NTRK1. The conditions noted are these: at 10 µM.

Receptor-interacting serine/threonine-protein kinase 2, sequence (O43353 whole entry): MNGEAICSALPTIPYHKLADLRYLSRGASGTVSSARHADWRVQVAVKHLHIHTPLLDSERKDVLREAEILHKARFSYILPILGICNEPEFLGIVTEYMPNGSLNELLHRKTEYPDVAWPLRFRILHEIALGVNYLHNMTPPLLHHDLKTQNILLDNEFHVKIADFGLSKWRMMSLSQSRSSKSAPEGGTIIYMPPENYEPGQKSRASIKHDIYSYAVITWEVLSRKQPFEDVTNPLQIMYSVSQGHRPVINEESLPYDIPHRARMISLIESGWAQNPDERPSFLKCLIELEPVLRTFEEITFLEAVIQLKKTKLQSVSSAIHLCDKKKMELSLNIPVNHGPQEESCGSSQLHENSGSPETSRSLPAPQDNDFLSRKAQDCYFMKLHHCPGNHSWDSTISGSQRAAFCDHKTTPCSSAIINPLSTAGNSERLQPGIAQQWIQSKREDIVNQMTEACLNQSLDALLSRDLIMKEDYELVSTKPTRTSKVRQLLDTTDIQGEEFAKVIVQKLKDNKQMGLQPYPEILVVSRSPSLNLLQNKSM
High affinity nerve growth factor receptor, sequence (P04629 33-796 limits assumed): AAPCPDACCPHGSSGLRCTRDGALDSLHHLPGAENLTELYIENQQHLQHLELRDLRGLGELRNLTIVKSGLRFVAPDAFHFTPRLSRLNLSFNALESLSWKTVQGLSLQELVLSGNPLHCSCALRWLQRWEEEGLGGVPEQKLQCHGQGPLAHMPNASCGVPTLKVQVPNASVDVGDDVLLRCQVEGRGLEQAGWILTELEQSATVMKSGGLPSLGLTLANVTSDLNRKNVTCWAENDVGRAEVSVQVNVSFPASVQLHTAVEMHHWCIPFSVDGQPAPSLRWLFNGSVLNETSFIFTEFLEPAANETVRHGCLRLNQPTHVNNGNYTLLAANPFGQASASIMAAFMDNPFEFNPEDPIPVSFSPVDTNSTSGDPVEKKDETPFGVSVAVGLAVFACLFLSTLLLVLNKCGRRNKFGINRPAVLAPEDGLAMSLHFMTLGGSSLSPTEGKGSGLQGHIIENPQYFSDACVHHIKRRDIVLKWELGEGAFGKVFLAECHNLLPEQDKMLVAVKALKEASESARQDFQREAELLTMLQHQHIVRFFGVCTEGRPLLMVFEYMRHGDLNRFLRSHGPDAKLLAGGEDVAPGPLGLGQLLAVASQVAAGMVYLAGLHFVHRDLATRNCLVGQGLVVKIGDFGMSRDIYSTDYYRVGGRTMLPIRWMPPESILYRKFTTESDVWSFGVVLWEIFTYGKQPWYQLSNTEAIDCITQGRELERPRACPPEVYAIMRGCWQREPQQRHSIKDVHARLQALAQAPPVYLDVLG

Turning to `O=C(NOC[C@H](O)CO)c1ccc(F)c(F)c1Nc1ccc(I)cc1F`, the % of control in assay [1] stood at 86%. For `CC[C@@H]1[C@H](F)C(=O)N[C@@H]1COc1nccc2cc(C(N)=O)c(OC)cc12` [ZIMLOVISERTIB], the % of inhibition in assay [2] was 16.8%. For the molecule `COc1cc(Nc2nc(C)cc(-c3cnn4nc(OC)ccc34)n2)cc(C(F)(F)F)c1`, the % of control in assay [3] was found to be 100%. With `CN(C)CCOc1ccc(-c2nc(-c3ccncc3)c(-c3ccc4c(c3)CC/C4=N\O)[nH]2)cc1`, the % of control in assay [4] is 95%. `COc1cc(N(C)c2ccnc3ccc(C(F)(F)F)cc23)cc(OC)c1OC` showed a % binding in assay [5] of 96%.
